Laboratory results from US12280121B2, “Immunoconjugates and methods” (Immunome, Inc., priority 2021, dated 2025).
Structures can show the parent of a compound that is named as a salt. Where two headings read alike, the source gives them in different places.

Columns and labels:
[1] = Human hepatocyte clearance (HHEP CL); assay type: in vitro ADME; design: CLint scaled / half-life: dose or concentration left out as unconfirmed; details: both sexes
Procedure: Suspensions of human hepatocytes (from 10 mixed gender human donors, final concentration 0.5×10^6 cell/mL) in Williams' E medium were incubated for 90 min with a test compound (0.90% acetonitrile and 0.10% DMSO, final concentration […]) and positive controls (7-Ethoxycoumarin, 7-Hydroxycoumarin, 0.90% acetonitrile and 0.10% DMSO, final concentration […]), with constant shaking at about 600 rpm at 37° C. in an incubator at 5% CO2 and 95% humidity. The total volume of incubation was 200 μl. A sample ([…]) was taken out at TO, 15, 30, 60 and 90 min, which was added intermediately to the ice-cold stop solution (acetonitrile with 200 ng/mL of tobutamide and labetalol as internal standard) (125 μl), and vortexed at 500 rpm for 10 min, centrifuged at 3220×g for 20 min at 4° C. Analytical plates are sealed and stored at 4° C. until LCMS analysis. Viability of hepatocytes at pre-incubation was determined to be 84.5%.
(§1) Human liver microsome clearance assay assess metabolism by the cytochrome P450 system (phase I enzymes). These enzymes oxidize substrates by incorporating oxygen atoms into hydrocarbons, thus causing the introduction of hydroxyl groups, or N- O- and S-dealkylation of substrates and forming more polar products easier to be cleared. Human hepatocyte clearance assay measures more broadly the overall cellular metabolism of the test compound (phase I and phase II enzyme pathways). Phase II enzymes catalyze the conjugation reaction of xenobiotic metabolites and charged species, such as glutathione, sulfate, glycine, or glucuronic acid to form even more polar compounds for easier clearance.

MDA-MB-468 = assay: CTG assay (CellTiter-Glo cell viability), MDA-MB-468, payload compounds; assay type: cell-based; details: Homo sapiens
Source text: (§2) The CTG assay is a method of determining the number of viable cells in culture based on quantitation of the ATP present, an indicator of metabolically active cells. The cell assay requires the addition of a single reagent, Cell Titer Glo, in which cells are lysed and generation of a luminescent signal is produced. The luminescent signal is proportional to the amount of ATP present. The amount of ATP is directly proportional to the number of cells present in culture. For our assay, cells were ensured to be in log-phase for either Jeko-1 or MDA-MB-468. Cells were transferred to 96 wells and treated with compounds in three-fold serial dilution starting from 1 μM to 0.0000508 μM (10 points dilution), for 72 h. Cell viability was analyzed with CellTiter-Glo® Luminescent Cell Viability Assay (Promega) following manufactures' instruction. Percentage of viable cells in each compound concentration was determined by normalizing with the luminescence of vehicle control and plotted into percentage of viability versus dose response curve by nonlinear fit in GraphPad Prism software.

[2] = Human liver microsome clearance (HLM CL); assay type: in vitro ADME
Procedure: Working solution was prepared by adding 5 μL of compound and control stock solution (10 mM in dimethyl sulfoxide, DMSO) to 495 μL of acetonitrile (ACN) (intermediate solution concentration: 100 μM, 99% CAN and 1% DMSO. The appropriate concentrations of microsome working solutions were prepared in 100 mM potassium phosphate buffer. After reaction plates containing mixtures of compound and microsomes were pre-incubated at 37° C. for 10 min, […] of 2 mM of NADPH and 2 mM of MgCl2 solution was added to start the reaction. The final concentrations of incubation medium were as follows: microsome—0.5 mg protein/mL, test compound/control […], NADPH—1 mM, MgCl2 —1 mM, acetonitrile 0.99%, DMSO 0.01%. Incubations were performed at 37° C. for 60 min. Samples were taken out at TO, T5, T15, T30, T45 and T60, which was added intermediately to the ice-cold stop solution (acetonitrile with 200 ng/mL of tobutamide and labetalol as internal standard) (125 μl), shaken for 10 min, centrifuged at 4000 rpm for 20 min at 4° C. Analytical plates were analyzed by LCMS.
as §1

[3] = PAMPA (Parallel Artificial Membrane Permeability Assay); assay type: physicochemical
Source text: PAMPA is a method which determines the permeability of substances from a donor compartment, through a lipid-infused artificial membrane into an acceptor compartment. See Ottaviani, G.; Martel, S.; Carrupt, P-A. “Parallel Artificial Membrane Permeability Assay: A New Membrane for the Fast Prediction of Passive Human Skin Permeability”, Journal of Medicinal Chemistry, 2006, 49 (13), 3948-3954). A multi-well microtitre plate is used for the donor and a membrane/acceptor compartment is placed on top; the whole assembly is commonly referred to as a “sandwich”. At the beginning of the test, the drug is added to the donor compartment, and the acceptor compartment is drug-free. After an incubation period which may include stirring, the sandwich is separated, and the amount of drug is measured in each compartment. Mass balance allows calculation of drug that remains in the membrane.
The PAMPA was performed by Pion Inc using the GIT-0 lipid and 5 μM donor solution in pH 5.0 and pH 7.4 PRISMA buffer (containing 0.05% DMSO). The higher PAMPA data has been associated with better bystander killing. (Ogitani Y.; Hagihara K.; Oitate, M.; Naito, H.; Agatsuma T. “Bystander killing effect of DS-8201a, a novel anti-human epidermal growth factor receptor 2 antibody-drug conjugate, in tumors with human epidermal growth factor receptor 2 heterogeneity” Cancer Science, 2016, 107 (7), 1039-1046).

Jeko-1 = assay: CTG assay (CellTiter-Glo cell viability), Jeko-1, payload compounds; assay type: cell-based; details: Homo sapiens
Source text: as §2

[4] = MDA-MB-468, 72 h, CellTiter-Glo, read-out: MDA-MB-468 IC50
[5] = JeKo-1, 72 h, CellTiter-Glo, read-out: JeKo-1 IC50
[6] = human hepatocytes, 90 min incubation, read-out: HHEP (T1/2)
[7] = human hepatocytes, 90 min incubation, read-out: HHEP Cl (human hepatocytes intrinsic clearance)
[8] = human liver microsomes 0.5 mg protein/mL, NADPH, 60 min, read-out: HLM (T1/2)
[9] = human liver microsomes 0.5 mg protein/mL, NADPH, 60 min, read-out: HLM Cl (human liver microsome clearance)
[10] = pH 5.0 PRISMA buffer, GIT-0 lipid, 5 μM donor solution, read-out: PAMPA Pe pH 5.0
[11] = pH 7.4 PRISMA buffer, GIT-0 lipid, 5 μM donor solution, read-out: PAMPA Pe pH 7.4

| SMILES | CLint scaled ([1]; human, hepatocytes) | half-life ([1]; human, hepatocytes) | IC50 (MDA-MB-468; [4]) | CLint scaled ([2]; human, microsomes) | half-life ([2]; human, microsomes) | Papp at 5 μM ([3]; pH 5) | Papp at 5 μM ([3]; pH 7.4) | IC50 (Jeko-1; [5]) | half-life [1, 6] | CLint scaled [1, 7] | half-life [2, 8] | CLint scaled [2, 9] | Papp at 5 μM [3, 10] | Papp at 5 μM [3, 11] | PAMPA Pe (10^−6 cm/s) pH 5.0 ([3]; 5 μM, pH 5) | CLint scaled ([1]; human hepatocytes in suspension, human hepatocytes, 90 min incubation, read-out: HHEP Cl (human hepatocytes intrinsic clearance)) | IC50 (MDA-MB-468; MDA-MB-468, 72 h, read-out: MDA-MB-468 IC50 (nM)) | Papp ([3]; pH 5) | Papp ([3]; pH 7.4) | IC50 (Jeko-1; JeKo-1, 72 h, read-out: JeKo-1 IC50 (nM)) |
| --- | --- | --- | --- | --- | --- | --- | --- | --- | --- | --- | --- | --- | --- | --- | --- | --- | --- | --- | --- | --- |
| CC[C@@]1(O)C(=O)OCc2c1cc1n(c2=O)Cc2c-1nc1cc(F)c(C)c3c1c2[C@H](O)CC3 (single isomer, unassigned) [Compound 3-34] | 79.2 mL/min/kg | 48.7 min | 6 nM | 32.1 mL/min/kg | 38.8 min | 78.3 ×10⁻⁶ cm/s | 8.2 ×10⁻⁶ cm/s | 0.59 nM | – | – | – | – | – | – | – | – | – | – | – | – |
| CC[C@@]1(O)C(=O)OCc2c1cc1n(c2=O)Cc2c-1nc1cc(F)c(C)c3c1c2[C@](C)(OCCO)CC3 (single isomer, unassigned) [Compound 14-92] | 51.3 mL/min/kg | 75.1 min | 14.2 nM | 19.2 mL/min/kg | 65 min | 69.1 ×10⁻⁶ cm/s | 4.5 ×10⁻⁶ cm/s | 1.2 nM | – | – | – | – | – | – | – | – | – | – | – | – |
| CC[C@@]1(O)C(=O)OCc2c1cc1n(c2=O)Cc2c-1nc1cc(F)c(C)c3c1c2[C@@](C)(N)CC3 (single isomer, unassigned) [Compound 8-71, hydrochloride] | 81.7 mL/min/kg | 47 min | 6.1 nM | 41.9 mL/min/kg | 30 min | 67.7 ×10⁻⁶ cm/s | 8.6 ×10⁻⁶ cm/s | 0.44 nM | – | – | – | – | – | – | – | – | – | – | – | – |
| CC[C@@]1(O)C(=O)OCc2c1cc1n(c2=O)Cc2c-1nc1cc(F)c(C)c3c1c2[C@](C)(NCCO)CC3.Cl [Compound 17-96, (1R,9S)-9-ethyl-5-fluoro-9-hydroxy-1-((2-hydroxyethyl)amino)-1,4-dimethyl-2,3,12,15-tetrahydrobenzo[de]pyrano[3′,4′:6,7]indolizino [1,2-b]quinoline-10,13(1H,9H)-dione hydrochloride] | – | – | 22 nM | – | – | – | – | 2.1 nM | 82 min | 47.1 mL/min/kg | 17.5 min | 71.3 mL/min/kg | 62.6 ×10⁻⁶ cm/s | 4.3 ×10⁻⁶ cm/s | – | – | – | – | – | – |
| CC[C@@]1(O)C(=O)OCc2c1cc1n(c2=O)Cc2c-1nc1cc(F)c(C)c3c1c2[C@](C)(O)CC3 (single isomer, unassigned) [Compound 13-85] | 75.7 mL/min/kg | 51 min | 36.2 nM | 58.3 mL/min/kg | 21 min | 69.7 ×10⁻⁶ cm/s | 6 ×10⁻⁶ cm/s | 2.6 nM | – | – | – | – | – | – | – | – | – | – | – | – |
| CC[C@@]1(O)C(=O)OCc2c1cc1n(c2=O)Cc2c-1nc1cc(F)c(C)c3c1c2[C@@](C)(O)CC3 (single isomer, unassigned) [Compound 13-84] | 112 mL/min/kg | 34 min | 5.9 nM | 58.9 mL/min/kg | 21 min | 64.4 ×10⁻⁶ cm/s | 7.6 ×10⁻⁶ cm/s | 0.61 nM | – | – | – | – | – | – | – | – | – | – | – | – |
| CC[C@@]1(O)C(=O)OCc2c1cc1n(c2=O)Cc2c-1nc1cc(F)c(C)c3c1c2[C@H](N)CCC3 (single isomer, unassigned) [Compound 7-60, methanesulfonate] | 64.5 mL/min/kg | 59.7 min | 14.9 nM | 40.8 mL/min/kg | 30.6 min | – | – | 2.1 nM | – | – | – | – | – | – | – | – | – | – | – | – |
| CC[C@@]1(O)C(=O)OCc2c1cc1n(c2=O)Cc2c-1nc1cc(F)c(C)c3c1c2[C@@](C)(OCCO)CC3 (single isomer, unassigned) [Compound 14-91] | 63.4 mL/min/kg | 60.8 min | 17.6 nM | 46.5 mL/min/kg | 26.8 min | 67.8 ×10⁻⁶ cm/s | 5.6 ×10⁻⁶ cm/s | 1.4 nM | – | – | – | – | – | – | – | – | – | – | – | – |
| CC[C@@]1(O)C(=O)OCc2c1cc1n(c2=O)Cc2c-1nc1cc(F)c(C)c3c1c2[C@H](OCCO)CC3 (single isomer, unassigned) [Compound 5-47] | 53.7 mL/min/kg | 71.7 min | 6.3 nM | 17.3 mL/min/kg | 72.2 min | – | 11.6 ×10⁻⁶ cm/s | 1.5 nM | – | – | – | – | – | – | 76/.1 10^−6 cm/s | – | – | – | – | – |
| CC[C@@]1(O)C(=O)OCc2c1cc1n(c2=O)Cc2c-1nc1cc(F)c(C)c3c1c2[C@](C)(N)CC3 (single isomer, unassigned) [Compound 8-72, hydrochloride] | 79.1 mL/min/kg | 49 min | 7.7 nM | 35.9 mL/min/kg | 35 min | 80.8 ×10⁻⁶ cm/s | 8.4 ×10⁻⁶ cm/s | 1.5 nM | – | – | – | – | – | – | – | – | – | – | – | – |
| CC[C@@]1(O)C(=O)OCc2c1cc1n(c2=O)Cc2c-1nc1cc(F)c(C)c3c1c2[C@@H](N)CC3.CS(=O)(=O)O [Exatecan, (1S,9S)-1-amino-9-ethyl-5-fluoro-9-hydroxy-4-methyl-2,3,12,15-tetrahydro-benzo[de]pyrano [3′,4′:6,7]indolizino[1,2-b]quinoline-10,13(1H,9H)-dione methanesulfonate, reference compound] | – | 65 min | – | – | 106 min | – | – | – | – | – | – | 11.7 mL/min/kg | – | – | – | 59.3 mL/min/kg | 6.2 nM | 37.2 ×10⁻⁶ cm/s | 5.7 ×10⁻⁶ cm/s | 0.59 nM |
| CC[C@@]1(O)C(=O)OCc2c1cc1n(c2=O)Cc2c-1nc1cc(F)c(C)c3c1c2[C@@](C)(NCCO)CC3.Cl [Compound 16-95, (1S,9S)-9-ethyl-5-fluoro-9-hydroxy-1-((2-hydroxyethyl)amino)-1,4-dimethyl-2,3,12,15-tetrahydrobenzo[de]pyrano[3′,4′:6,7]indolizino[1,2-b]quinoline-10,13(1H,9H)-dione hydrochloride] | – | – | 13.7 nM | – | – | – | – | 1.3 nM | 130 min | 29.6 mL/min/kg | 49.1 min | 25.4 mL/min/kg | 63.1 ×10⁻⁶ cm/s | 5.5 ×10⁻⁶ cm/s | – | – | – | – | – | – |
| CC[C@@]1(O)C(=O)OCc2c1cc1n(c2=O)Cc2c-1nc1cc(F)c(C)c3c1c2[C@@H](N)CCC3 (single isomer, unassigned) [Compound 7-59, methanesulfonate] | 69.4 mL/min/kg | 55.5 min | 14.8 nM | 33.7 mL/min/kg | 37 min | – | – | 2.9 nM | – | – | – | – | – | – | – | – | – | – | – | – |
